In PubChem BioAssay AID1259407 (Chemical Carcinogenesis Research Information System (CCRIS), 2018):
Calls of active or inactive are those of the source. How the calls were made is not given here.

Test system: CCRIS mutagenicity, Ames/micronucleus/aberration tests
Assay: CCRIS mutagenicity studies
[1] = Test System: AMES SALMONELLA TYPHIMURIUM, Strain/Indicator: TA98, Metabolic Activation: NONE, Method: PREINCUBATION
[2] = Test System: AMES SALMONELLA TYPHIMURIUM, Strain/Indicator: TA100, Metabolic Activation: NONE, Method: PREINCUBATION
[3] = Test System: AMES SALMONELLA TYPHIMURIUM, Strain/Indicator: TA1535, Metabolic Activation: NONE, Method: PREINCUBATION
[4] = Test System: AMES SALMONELLA TYPHIMURIUM, Strain/Indicator: TA100, Metabolic Activation: NONE, Method: STANDARD PLATE

O=C(O)c1ccccc1Nc1cccc(C(F)(F)F)c1
mutagenic call (Test System: AMES SALMONELLA TYPHIMURIUM, Strain/Indicator: TA98, Metabolic Activation: RAT, LIVER, S-9, PCB, Method: STANDARD PLATE): inactive; negative
mutagenic call (Test System: AMES SALMONELLA TYPHIMURIUM, Strain/Indicator: TA100, Metabolic Activation: RAT, LIVER, S-9, PCB, Method: STANDARD PLATE): inactive; negative
mutagenic call (Test System: AMES SALMONELLA TYPHIMURIUM, Strain/Indicator: TA1537, Metabolic Activation: RAT, LIVER, S-9, PCB, Method: STANDARD PLATE): inactive; negative
mutagenic call (Test System: AMES SALMONELLA TYPHIMURIUM, Strain/Indicator: TA1538, Metabolic Activation: RAT, LIVER, S-9, PCB, Method: STANDARD PLATE): inactive; negative
mutagenic call (Test System: E. COLI, Strain/Indicator: WP2 UVRA, Metabolic Activation: RAT, LIVER, S-9, PCB, Method: STANDARD PLATE): inactive; negative

COc1cc(CCCS(=O)(=O)O)ccc1O[C@H](Cc1cccc(OC)c1O)CS(=O)(=O)O
mutagenic call (Test System: AMES SALMONELLA TYPHIMURIUM, Strain/Indicator: TA98, Metabolic Activation: HAMSTER, LIVER, S-9, AROCLOR 1254, Method: PREINCUBATION): inactive; negative
mutagenic call [1]: inactive; negative
mutagenic call (Test System: AMES SALMONELLA TYPHIMURIUM, Strain/Indicator: TA98, Metabolic Activation: RAT, LIVER, S-9, AROCLOR 1254, Method: PREINCUBATION): inactive; negative
mutagenic call (Test System: AMES SALMONELLA TYPHIMURIUM, Strain/Indicator: TA100, Metabolic Activation: HAMSTER, LIVER, S-9, AROCLOR 1254, Method: PREINCUBATION): inactive; negative
mutagenic call [2]: inactive; negative
mutagenic call (Test System: AMES SALMONELLA TYPHIMURIUM, Strain/Indicator: TA100, Metabolic Activation: RAT, LIVER, S-9, AROCLOR 1254, Method: PREINCUBATION): inactive; negative
mutagenic call (Test System: AMES SALMONELLA TYPHIMURIUM, Strain/Indicator: TA1535, Metabolic Activation: HAMSTER, LIVER, S-9, AROCLOR 1254, Method: PREINCUBATION): inactive; negative
mutagenic call [3]: inactive; negative
mutagenic call (Test System: AMES SALMONELLA TYPHIMURIUM, Strain/Indicator: TA1535, Metabolic Activation: RAT, LIVER, S-9, AROCLOR 1254, Method: PREINCUBATION): inactive; negative
mutagenic call (Test System: AMES SALMONELLA TYPHIMURIUM, Strain/Indicator: TA1537, Metabolic Activation: HAMSTER, LIVER, S-9, AROCLOR 1254, Method: PREINCUBATION): inactive; negative
mutagenic call (Test System: AMES SALMONELLA TYPHIMURIUM, Strain/Indicator: TA1537, Metabolic Activation: NONE, Method: PREINCUBATION): inactive; negative
mutagenic call (Test System: AMES SALMONELLA TYPHIMURIUM, Strain/Indicator: TA1537, Metabolic Activation: RAT, LIVER, S-9, AROCLOR 1254, Method: PREINCUBATION): inactive; negative

CC(=O)ON(OCc1ccc(Oc2ccccc2)cc1)C(=O)c1ccccc1
mutagenic call [4]: active; positive
mutagenic call (Test System: AMES SALMONELLA TYPHIMURIUM, Strain/Indicator: TA100, Metabolic Activation: RAT, S-9, AROCLOR, Method: STANDARD PLATE): active; positive

Cc1c(N)cccc1N
mutagenic call (End Point: IN VITRO CHROMOSOMAL ABERRATIONS, Test System: CHINESE HAMSTER LUNG CELLS (CHL), Metabolic Activation: NONE): active; positive (structural changes)
mutagenic call (End Point: IN VITRO CHROMOSOMAL ABERRATIONS, Test System: CHINESE HAMSTER LUNG CELLS (CHL), Metabolic Activation: RAT, LIVER, S-9, KC-400): active; positive (structural changes)
mutagenic call (End Point: IN VITRO CHROMOSOMAL ABERRATIONS, Test System: CHINESE HAMSTER OVARY CELLS (CHO), Metabolic Activation: NONE): active; positive (structural changes)
mutagenic call (End Point: IN VITRO CHROMOSOMAL ABERRATIONS, Test System: CHINESE HAMSTER OVARY CELLS (CHO), Metabolic Activation: RAT, LIVER, S-9, AROCLOR 1254): inactive; negative
mutagenic call (End Point: IN VITRO CHROMOSOMAL ABERRATIONS, Test System: CHO CELLS, Metabolic Activation: RAT, LIVER, S-9, AROCLOR 1254): inactive; negative
mutagenic call (Test System: AMES SALMONELLA TYPHIMURIUM, Strain/Indicator: TA97, Metabolic Activation: HAMSTER, LIVER, S-9, AROCLOR 1254 (10%), Method: PREINCUBATION): active; positive
mutagenic call (Test System: AMES SALMONELLA TYPHIMURIUM, Strain/Indicator: TA97, Metabolic Activation: NONE, Method: PREINCUBATION): inactive; negative
mutagenic call (Test System: AMES SALMONELLA TYPHIMURIUM, Strain/Indicator: TA97, Metabolic Activation: RAT, LIVER, S-9, AROCLOR 1254 (10%), Method: PREINCUBATION): inactive; negative
mutagenic call (Test System: AMES SALMONELLA TYPHIMURIUM, Strain/Indicator: TA98, Metabolic Activation: HAMSTER, LIVER, S-9, AROCLOR 1254 (10%), Method: PREINCUBATION): active; positive
mutagenic call [1]: inactive; negative
mutagenic call (Test System: AMES SALMONELLA TYPHIMURIUM, Strain/Indicator: TA98, Metabolic Activation: RAT, LIVER, S-9, AROCLOR 1254 (10%), Method: PREINCUBATION): active; positive
mutagenic call (Test System: AMES SALMONELLA TYPHIMURIUM, Strain/Indicator: TA100, Metabolic Activation: HAMSTER, LIVER, S-9, AROCLOR 1254 (10%), Method: PREINCUBATION): active; positive
mutagenic call [2]: inactive; negative
mutagenic call (Test System: AMES SALMONELLA TYPHIMURIUM, Strain/Indicator: TA100, Metabolic Activation: RAT, LIVER, S-9, AROCLOR 1254 (10%), Method: PREINCUBATION): active; positive
mutagenic call (Test System: AMES SALMONELLA TYPHIMURIUM, Strain/Indicator: TA1535, Metabolic Activation: HAMSTER, LIVER, S-9, AROCLOR 1254 (10%), Method: PREINCUBATION): active; positive
mutagenic call [3]: inactive; negative
mutagenic call (Test System: AMES SALMONELLA TYPHIMURIUM, Strain/Indicator: TA1535, Metabolic Activation: RAT, LIVER, S-9, AROCLOR 1254 (5, 10 OR 30%), Method: PREINCUBATION): inactive; negative

COc1cc2ccnc3c2c(c1OC)-c1ccccc1C3=O
mutagenic call (Test System: AMES SALMONELLA TYPHIMURIUM, Strain/Indicator: TA100, Metabolic Activation: RAT, LIVER, S-9, PHENOBARBITAL AND BETA-NAPHTHOFLAVONE, Method: PREINCUBATION): active; positive

Cc1c2ccccc2c(CBr)c2ccccc12
mutagenic call (Test System: AMES SALMONELLA TYPHIMURIUM, Strain/Indicator: TA98, Metabolic Activation: NONE, Method: STANDARD PLATE): active; positive
mutagenic call [4]: inactive; negative
